Values of other authors as cited in patent US20030203881A1, “Method of treating neurologic disorders” (priority 2000, published 2003).

How the values were obtained:
[1] = system: osteoarthritis in dog models; conditions: prophylactic administration
neurons = conditions: tissue culture
microglial response = conditions: experimental model of stroke, around stroke lesions
[2] = system: patients with mild and moderate arthritis
inflammatory cells = conditions: EAE

Compound | severity of osteoarthritis [1] | protection of neurons against death (neurons) | microglial response in the area surrounding areas of brain ischemia (microglial response) | efficacy in patients with arthritis [2] | safety in patients with arthritis [2] | invasion of inflammatory cells into the CNS (inflammatory cells)
C[C@H]1c2cccc(O)c2C(=O)C2=C(O)[C@]3(O)C(=O)C(C(N)=O)=C(O)[C@@H](N(C)C)[C@@H]3[C@@H](O)[C@@H]21 [doxycycline] | markedly reduced the severity of osteoarthritis |  |  |  |  | 
CN(C)c1ccc(O)c2c1C[C@H]1C[C@H]3[C@H](N(C)C)C(=O)C(C(N)=O)=C(O)[C@@]3(O)C(=O)C1=C2O [minocycline] |  | protects neurons against death | reduced the microglial response | effective | safe | prevents the invasion of inflammatory cells into the CNS
